# Test results: patent US4057684A, “Alkyl amino-glucopyranoside derivative and process for producing the same” (priority 1975, dated 1977)
# Values joined by “and” are separate entries in the source; they are usually repeats but may differ in a detail not shown here. Equal values may be shown once. “Also recorded” adds a separate entry of the source. Read-outs that look alike come from different tables or passages of the source.
# Legend:
# [1] = system: tumor; details: in vivo; cited from earlier work
# [2] = cited from earlier work
# [3] = cited from earlier work; remark: listed apart in the source
# [4] = cited from earlier work; for bone marrow toxicity: in vivo
# [5] = peripheral white blood cell counts (bone marrow toxicity) and survival in normal male ICR mice; assay type: in vivo, mouse (ICR)
# Experimental: Such peripheral white blood cell counts were performed as follows: Normal male ICR mice were used in groups of tens and the test compounds for treatment were made into their respective solutions. 2MCαG and 6MCαG were dissolved in physiological saline solutions, while CCNU and GCNU were suspended in 0.5% CMC aqueous solution and 50% PEG aqueous solution, respectively. A single administration at volume of 1 ml per 100 g body weight of animal (0.1 ml/10 g) was given intraperitoneally, and the peripheral white blood cell counts were performed 3, 8 and 15 days after administration of the test compounds.
# [6] = system: adenocarcinoma-755 (Ca-755); experiment: antitumor effect against adenocarcinoma-755 (Ca-755) implanted in mice; assay type: in vivo, mouse (BDF1)
# From the text: (§1) Results of pharmacological studies for amino-glucopyranoside [I] according to the invention are described below. The test compounds which were used included methyl N-carbamyl-N'-(2-chloroethyl)-N'-nitroso-2-amino-2-deoxy-α-D-glucopyranoside and methyl N-carbamyl-N'-(2-chloroethyl)-N'-nitroso-6-amino-6-deoxy-α-D-glucopyranoside (hereinafter abbreviated to 2MCαG and 6MCαG, respectively). The control compounds which were employed were 1-(2-chloroethyl)-3-cyclohexyl-1-nitrosoourea (hereinafter abbreviated to CCNU), which had been widely applied as a control compound in such a pharmacological test of the streptozotocin derivatives, and GCNU referred to previously. The tumor systems which were used were leukemia L-1210, Nakahara-Fukuoka sarcoma, adenocarcinoma-755, ascites sarcoma 180 and Ehrlich ascites carcinoma (hereinafter abbreviated to L-1210, NFS, Ca-755, S-180A and EAC, respectively), and the antitumor activities were determined by a procedure of the National Cancer Center, Tokyo (A. Hoshi et al.: Farumashia 9, 464(1973)). The test animals which were used were ICR and BDF1 mice.
# (§2) ^a Treatment was initiated 24 hr after implantation of tumor (day 1):
# (§3) D1~5 = qd, day 1~5; D1 = day 1 only.
# (§4) ^b T/C is expressed as the tumor weight ratio in solid tumors or tota
# (§5) packed cell volume ratio in ascites tumors of treated/control.
# [7] = blood sugar level / diabetogenic activity; assay type: in vivo, rat (male Wister)
# [8] = system: Ehrlich ascites carcinoma (EAC); experiment: antitumor effect against Ehrlich ascites carcinoma (EAC) implanted in mice; assay type: in vivo, mouse (ICR)
# From the text: as §1, §2, §3, §4, §5
# [9] = system: solid as well as ascites tumor systems; experiment: antitumor activity in the tumor systems (overall); assay type: in vivo, mouse; details: mouse, in vivo
# From the text: as §1
# [10] = acute toxicity (LD50) in mice; assay type: in vivo, mouse (ICR); details: mouse, in vivo, ICR mice
# [11] = system: bacteria; experiment: antibacterial activity, broth dilution method
# [12] = system: ascites sarcoma 180 (S-180A); experiment: antitumor effect against ascites sarcoma 180 (S-180A) implanted in mice; assay type: in vivo, mouse (ICR)
# From the text: as §1, §2, §3, §4, §5
# [13] = system: leukemia L-1210; experiment: increase in life span and survival of leukemia L-1210 implanted mice; assay type: in vivo, mouse (BDF1)
# From the text: as §1, §2, §3
# ^d % increase in life span (mean survival time) over controls.
# ^e 60 days survivors/total in treated group.
# [14] = system: Nakahara-Fukuoka sarcoma (NFS); experiment: antitumor effect against Nakahara-Fukuoka sarcoma (NFS) implanted in mice; assay type: in vivo, mouse (ICR)
# From the text: as §1, §2, §3, §4, §5
# [15] = 3.2 mg/kg/day ip D1~5, BDF1 mice
# [16] = 6.3 mg/kg/day ip D1~5, BDF1 mice
# [17] = 15.0 mg/kg/day ip D1~5, BDF1 mice
# [18] = 3.2 mg/kg/day ip D1~5, ICR mice
# [19] = 3.2 mg/kg/day ip, 5 successive days
# [20] = 12.5 mg/kg/day ip D1~5, ICR mice
# [21] = 3.2 mg/kg/day ip D1~5, listed as 2MCaαG
# [22] = 6.3 mg/kg/day ip D1~5, ICR mice
# [23] = 15.0 mg/kg/day ip D1~5, ICR mice
# [24] = 20.0 mg/kg/day ip D1~5, ICR mice
structure (smiles),measurement,setting,value
O=NN(CCCl)C(=O)N[C@H]1C(O)O[C@H](CO)[C@@H](O)[C@@H]1O (stereo partly drawn) [2-[3-(2-chloroethyl)-3-nitrosoureido]-2-deoxy-D-glucopyranose],antitumor activity,[1],improved antitumor activity
same,diabetogenic activity,[2]; test animals,diabetogenic
same,water solubility,[3],water-soluble
same,bone marrow toxicity,[4],low bone marrow toxicity
"CO[C@H]1O[C@H](CO)[C@@H](O)[C@H](O)[C@H]1NC(=O)N(CCCl)N=O [Example 2MCαG, methyl N-carbamyl-N'-(2-chloroethyl)-N'-nitroso-2-amino-2-deoxy-α-D-glucopyranoside]",Death rate (death/used),[5]; 10 mg/kg ip single,0/10
same,Average count of WBC,"[5]; 10 mg/kg ip single, day 3",74.0±4.6 x 10^2 WBC/mm^3
same,Average count of WBC,"[5]; 10 mg/kg ip single, day 8",105.6±4.5 x 10^2 WBC/mm^3
same,Average count of WBC,"[5]; 10 mg/kg ip single, day 15",131.8±5.4 x 10^2 WBC/mm^3
same,Death rate (death/used),[5]; 20 mg/kg ip single,2/10
same,Average count of WBC,"[5]; 20 mg/kg ip single, day 3",46.3±9.5 x 10^2 WBC/mm^3
same,Average count of WBC,"[5]; 20 mg/kg ip single, day 8",101.0±16.5 x 10^2 WBC/mm^3
same,Average count of WBC,"[5]; 20 mg/kg ip single, day 15",129.4±20.1 x 10^2 WBC/mm^3
same,Death rate (death/used),[5]; 40 mg/kg ip single,10/10
same,Average count of WBC,"[5]; 40 mg/kg ip single, day 3",30.8±2.8 x 10^2 WBC/mm^3
same,Death rate (death/used),[5]; 60 mg/kg ip single,10/10
same,Average count of WBC,"[5]; 60 mg/kg ip single, day 3",35.4±2.9 x 10^2 WBC/mm^3
same,Death rate (death/used),[5]; 80 mg/kg ip single,10/10
same,Average count of WBC,"[5]; 80 mg/kg ip single, day 3",32.0±3.8 x 10^2 WBC/mm^3
same,incidence of leukopenia,[5]; LD10 doses,comparatively mild with rapid return to pretreatment levels
same,bone marrow toxicity,"[5]; mouse, in vivo",improved bone marrow toxicity
same,bone marrow toxicity compared with CCNU,"[5]; mouse, in vivo",less toxic
same,bone marrow toxicity compared with GCNU,"[5]; mouse, in vivo",equivalent values as GCNU
same,Activity,[6]; [15],++ (50~21% = ++)
same,T/C,[6]; [15],22.4%
same,Activity,[6]; [16],+++ (20~0% = +++)
same,T/C,[6]; [16],9.6%
same,T/C,"[6]; 12.5 mg/kg/day ip D1~5, BDF1 mice",3.3%
same,Activity,[6]; [17],Toxic
same,T/C,[6]; [17],0.3%
same,died/used,[6]; [17],6/6
same,antitumor effect compared with CCNU,"[6]; ip, 5 successive days",more effective than CCNU
same,blood sugar level,"[7]; one-month administration, qd, day 1-30, male Wister rat, glucose oxidase method",neither elevation nor depression tendencies
same,diabetogenic activity,"[7]; rat, in vivo",free from diabetogenic
same,Activity,[8]; [18],+++ (10~0% 10~0% = +++)
same,T/C,[8]; [18],0%
same,accumulation of ascites tumor cells,[8]; [19],no accumulation of ascites tumor cells was observable
same,T/C,[8]; [20],0%
same,antitumor activity,[9],activity against solid as well as ascites tumor systems
same,LD50,"[10]; 5 doses, qd",16 mg/kg
same,LD50,[10]; single dose,48 mg/kg
same,antibacterial activity,[11],without any antibacterial activities; also recorded: free from diabetogenic and antibacterial activities
same,Activity,[12]; [18],+++ (10~0% 10~0% = +++)
same,T/C,[12]; [18],0%
same,accumulation of ascites tumor cells,[12]; [19],no accumulation of ascites tumor cells was observable
same,T/C,[12]; [20],0%
same,ILS,[13]; 1.0 mg/kg/day ip D1~5,48%
same,Survivors (60 days survivors/total),[13]; 1.0 mg/kg/day ip D1~5,0/6
same,ILS,[13]; 2.0 mg/kg/day ip D1~5,> 249%
same,Survivors (60 days survivors/total),[13]; 2.0 mg/kg/day ip D1~5,1/6
same,ILS,[13]; 2.0 mg/kg/day po D1~5,> 143%
same,Survivors (60 days survivors/total),[13]; 2.0 mg/kg/day po D1~5,1/6
same,ILS,[13]; 3.2 mg/kg/day ip D1~5,394%
same,Survivors (60 days survivors/total),[13]; 3.2 mg/kg/day ip D1~5,3 out of 6
same,ILS,[13]; [21],> 394%
same,Survivors (60 days survivors/total),[13]; [21],3/6
same,ILS,[13]; 3.2 mg/kg/day po D1~5,> 141%
same,Survivors (60 days survivors/total),[13]; 3.2 mg/kg/day po D1~5,1/6
same,ILS,[13]; 4.0 mg/kg/day ip D1~5,> 349%
same,Survivors (60 days survivors/total),[13]; 4.0 mg/kg/day ip D1~5,2/6
same,ILS,[13]; 6.3 mg/kg ip D1 only,128%
same,Survivors (60 days survivors/total),[13]; 6.3 mg/kg ip D1 only,0/6
same,ILS,[13]; 6.3 mg/kg/day ip D1~5,> 198%
same,Survivors (60 days survivors/total),[13]; 6.3 mg/kg/day ip D1~5,1/6
same,ILS,[13]; 6.3 mg/kg/day po D1~5,343% and > 343%
same,Survivors (60 days survivors/total),[13]; 6.3 mg/kg/day po D1~5,2 out of 6 and 2/6
same,ILS,[13]; 8.0 mg/kg ip D1 only,> 432%
same,Survivors (60 days survivors/total),[13]; 8.0 mg/kg ip D1 only,3/6
same,ILS,[13]; 10.0 mg/kg ip D1 only,> 717%
same,Survivors (60 days survivors/total),[13]; 10.0 mg/kg ip D1 only,6/6
same,ILS,[13]; 10.0 mg/kg/day ip D1~5,> 190%
same,Survivors (60 days survivors/total),[13]; 10.0 mg/kg/day ip D1~5,1/6
same,ILS,[13]; 12.5 mg/kg/day ip D1~5,> 160%
same,Survivors (60 days survivors/total),[13]; 12.5 mg/kg/day ip D1~5,1/6
same,ILS,[13]; 12.5 mg/kg/day po D1~5,211%
same,Survivors (60 days survivors/total),[13]; 12.5 mg/kg/day po D1~5,0/6
same,ILS,[13]; 20.0 mg/kg ip D1 only,> 717%
same,Survivors (60 days survivors/total),[13]; 20.0 mg/kg ip D1 only,6/6
same,ILS,[13]; 20.0 mg/kg/day ip D1~5,58%
same,Survivors (60 days survivors/total),[13]; 20.0 mg/kg/day ip D1~5,0/6
same,ILS,[13]; 25.0 mg/kg ip D1 only,> 539%
same,Survivors (60 days survivors/total),[13]; 25.0 mg/kg ip D1 only,> 4/6
same,single dose compared with five dose schedule,[13]; ip,might be more effective than a five dose schedule
same,activity against L-1210 compared with CCNU and GCNU,"[13]; mouse, in vivo",more active against L-1210
same,ILS,[13]; single 10-20 mg/kg ip,717%
same,animals survived,[13]; single 10-20 mg/kg ip,all 6 animals survived
same,Activity,[14]; [18],- (100~71% = -)
same,T/C,[14]; [18],86.1%
same,Activity,[14]; [22],+ (70~51% = +)
same,T/C,[14]; [22],55.2%
same,T/C,[14]; [20],44.3%
same,Activity,[14]; [23],++ (50~21% = ++)
same,T/C,[14]; [23],29.2%
same,Activity,[14]; [24],Toxic
same,died/used,[14]; [24],6/6
same,antitumor effect compared with CCNU,"[14]; ip, 5 successive days",more effective than CCNU
"CC(=O)OC[C@H]1OC(OC(C)=O)[C@H](NC(=O)N(CCCl)N=O)[C@@H](OC(C)=O)[C@@H]1OC(C)=O (stereo partly shown) [GCNU, 3-(tetraacetylglucopyranos-2-yl)-1-(2-chloroethyl)-1-nitrosourea, reference compound]",Death rate (death/used),[5]; 10 mg/kg ip single,0/10
same,Average count of WBC,"[5]; 10 mg/kg ip single, day 3",83.1±4.5 x 10^2 WBC/mm^3
same,Average count of WBC,"[5]; 10 mg/kg ip single, day 8",140.3±15.7 x 10^2 WBC/mm^3
same,Average count of WBC,"[5]; 10 mg/kg ip single, day 15",116.0±10.0 x 10^2 WBC/mm^3
same,Death rate (death/used),[5]; 20 mg/kg ip single,6/10
same,Average count of WBC,"[5]; 20 mg/kg ip single, day 3",60.4±3.6 x 10^2 WBC/mm^3
same,Average count of WBC,"[5]; 20 mg/kg ip single, day 8",131.4±17.4 x 10^2 WBC/mm^3
same,Average count of WBC,"[5]; 20 mg/kg ip single, day 15",106.0±9.0 x 10^2 WBC/mm^3
same,Death rate (death/used),[5]; 40 mg/kg ip single,10/10
same,Average count of WBC,"[5]; 40 mg/kg ip single, day 3",33.2±3.3 x 10^2 WBC/mm^3
same,Death rate (death/used),[5]; 60 mg/kg ip single,10/10
same,Average count of WBC,"[5]; 60 mg/kg ip single, day 3",26.5±3.5 x 10^2 WBC/mm^3
same,diabetogenic activity,[2]; test animals,nondiabetogenic activity
same,bone marrow toxicity,[4],reduced bone marrow toxicity
same,leukopenia,"[4]; single ip, 15 mg/kg",without causing leukopenia
"CN(N=O)C(=O)N[C@H]1C(O)O[C@H](CO)[C@@H](O)[C@@H]1O (stereo partly drawn) [streptozotocin, N-carbamyl-N'-methyl-N'-nitroso-2-amino-2-deoxy-D-glucopyranose]",antitumor activity,[1],exhibits an antitumor activity
same,diabetogenic activity,[2]; in vivo,diabetogenic
